Source: PMC6151383 (Molecules : A Journal of Synthetic Chemistry and Natural …, 2017)
In brackets after ≈: the same amount, converted by molar mass.

Test system: Trichosporon asahii 1188
Assay: Antifungal microdilution broth MIC, T. asahii
Format: cell-based
Details: Trichosporon asahii, 1188, 24 h, read-out: MIC TA 24 h

| SMILES | MIC [µM] |
| --- | --- |
| O=S(=O)(Nc1ncccn1)c1ccc(N=Cc2cccc(Cl)c2O)cc1 [Compound 2l, 4-[(3-Chloro-2-hydroxybenzylidene)amino]-N-(pyrimidin-2-yl)benzenesulfonamide] | 125 (≈ 48.6 µg/mL) |

Same assay, conditions: Trichosporon asahii, 1188, 48 h, read-out: MIC TA 48 h

| SMILES | MIC [µM] |
| --- | --- |
| O=S(=O)(Nc1ncccn1)c1ccc(N=Cc2cccc(Cl)c2O)cc1 [Compound 2l, 4-[(3-Chloro-2-hydroxybenzylidene)amino]-N-(pyrimidin-2-yl)benzenesulfonamide] | 125 (≈ 48.6 µg/mL) |

Test system: Klebsiella pneumoniae D 11750/08
Assay: not given
Details: 24 h

| SMILES | MIC KP 24 h [µM] |
| --- | --- |
| O=S(=O)(Nc1ncccn1)c1ccc(N=Cc2cccc(Cl)c2O)cc1 [Compound 2l, 4-[(3-Chloro-2-hydroxybenzylidene)amino]-N-(pyrimidin-2-yl)benzenesulfonamide] | >500 |

Same assay, conditions: 48 h

| SMILES | MIC KP 48 h [µM] |
| --- | --- |
| O=S(=O)(Nc1ncccn1)c1ccc(N=Cc2cccc(Cl)c2O)cc1 [Compound 2l, 4-[(3-Chloro-2-hydroxybenzylidene)amino]-N-(pyrimidin-2-yl)benzenesulfonamide] | >500 |

Test system: Lichtheimia corymbifera 272
Assay: Antifungal microdilution broth MIC, L. corymbifera
Format: cell-based
Details: Lichtheimia corymbifera, 272; 48 h incubation; read-out: MIC LC 48 h

| SMILES | MIC [µM] |
| --- | --- |
| O=S(=O)(Nc1ncccn1)c1ccc(N=Cc2cccc(Cl)c2O)cc1 [Compound 2l, 4-[(3-Chloro-2-hydroxybenzylidene)amino]-N-(pyrimidin-2-yl)benzenesulfonamide] | > 500 |

Test system: Candida krusei E28
Assay: Antifungal microdilution broth MIC, C. krusei
Format: cell-based
Details: Pichia kudriavzevii, E28; 48 h incubation; read-out: MIC CK 48 h

| SMILES | MIC [µM] |
| --- | --- |
| O=S(=O)(Nc1ncccn1)c1ccc(N=Cc2cccc(Cl)c2O)cc1 [Compound 2l, 4-[(3-Chloro-2-hydroxybenzylidene)amino]-N-(pyrimidin-2-yl)benzenesulfonamide] | 250 (≈ 97.2 µg/mL) |

Test system: Staphylococcus aureus CCM 4516/08
Assay: Antibacterial microdilution broth MIC, S. aureus
Format: cell-based
Details: Staphylococcus aureus, CCM4516; 48 h incubation; read-out: MIC SA 48 h

| SMILES | MIC [µM] |
| --- | --- |
| O=S(=O)(Nc1ncccn1)c1ccc(N=Cc2cccc(Cl)c2O)cc1 [Compound 2l, 4-[(3-Chloro-2-hydroxybenzylidene)amino]-N-(pyrimidin-2-yl)benzenesulfonamide] | > 500 |

Test system: Candida glabrata 20/I
Assay: Antifungal microdilution broth MIC, C. glabrata
Format: cell-based
Details: Nakaseomyces glabratus, 24 h, read-out: MIC CG 24 h

| SMILES | MIC [µM] |
| --- | --- |
| O=S(=O)(Nc1ncccn1)c1ccc(N=Cc2cccc(Cl)c2O)cc1 [Compound 2l, 4-[(3-Chloro-2-hydroxybenzylidene)amino]-N-(pyrimidin-2-yl)benzenesulfonamide] | 125 (≈ 48.6 µg/mL) |

Same assay, conditions: Nakaseomyces glabratus, 48 h, read-out: MIC CG 48 h

| SMILES | MIC [µM] |
| --- | --- |
| O=S(=O)(Nc1ncccn1)c1ccc(N=Cc2cccc(Cl)c2O)cc1 [Compound 2l, 4-[(3-Chloro-2-hydroxybenzylidene)amino]-N-(pyrimidin-2-yl)benzenesulfonamide] | 125 (≈ 48.6 µg/mL) |

Test system: Trichophyton interdigitale 445
Assay: Antifungal microdilution broth MIC, T. interdigitale
Format: cell-based
Details: Trichophyton interdigitale, 445; 72 h incubation; read-out: MIC TI 72 h

| SMILES | MIC [µM] |
| --- | --- |
| O=S(=O)(Nc1ncccn1)c1ccc(N=Cc2cccc(Cl)c2O)cc1 [Compound 2l, 4-[(3-Chloro-2-hydroxybenzylidene)amino]-N-(pyrimidin-2-yl)benzenesulfonamide] | 31.2 (≈ 12.2 µg/mL) |

Same assay, conditions: Trichophyton interdigitale, 445; 120 h incubation; read-out: MIC TI 120 h

| SMILES | MIC [µM] |
| --- | --- |
| O=S(=O)(Nc1ncccn1)c1ccc(N=Cc2cccc(Cl)c2O)cc1 [Compound 2l, 4-[(3-Chloro-2-hydroxybenzylidene)amino]-N-(pyrimidin-2-yl)benzenesulfonamide] | 31.2 (≈ 12.2 µg/mL) |

Test system: Mycobacterium avium 330/88
Assay: In vitro antimycobacterial MIC, M. avium
Format: cell-based
Details: 330/88, 336 h, 14 d incubation, read-out: MIC M. avium 330/88 14 d

| SMILES | MIC [µM] |
| --- | --- |
| O=S(=O)(Nc1ncccn1)c1ccc(N=Cc2cccc(Cl)c2O)cc1 [Compound 2l, 4-[(3-Chloro-2-hydroxybenzylidene)amino]-N-(pyrimidin-2-yl)benzenesulfonamide] | 125 (≈ 48.6 µg/mL) |

Same assay, conditions: 330/88, 504 h, 21 d incubation, read-out: MIC M. avium 330/88 21 d

| SMILES | MIC [µM] |
| --- | --- |
| O=S(=O)(Nc1ncccn1)c1ccc(N=Cc2cccc(Cl)c2O)cc1 [Compound 2l, 4-[(3-Chloro-2-hydroxybenzylidene)amino]-N-(pyrimidin-2-yl)benzenesulfonamide] | 250 (≈ 97.2 µg/mL) |

Test system: M. kansasii 6509/96
Assay: In vitro antimycobacterial MIC, M. kansasii clinical isolate
Format: cell-based
Details: Mycobacterium kansasii, 6509/96, 168 h; 7 d incubation; read-out: MIC M. kansasii 6509/96 7 d

| SMILES | MIC [µM] |
| --- | --- |
| O=S(=O)(Nc1ncccn1)c1ccc(N=Cc2cccc(Cl)c2O)cc1 [Compound 2l, 4-[(3-Chloro-2-hydroxybenzylidene)amino]-N-(pyrimidin-2-yl)benzenesulfonamide] | 16 (≈ 6.22 µg/mL) |

Same assay, conditions: Mycobacterium kansasii, 6509/96, 336 h; 14 d incubation; read-out: MIC M. kansasii 6509/96 14 d

| SMILES | MIC [µM] |
| --- | --- |
| O=S(=O)(Nc1ncccn1)c1ccc(N=Cc2cccc(Cl)c2O)cc1 [Compound 2l, 4-[(3-Chloro-2-hydroxybenzylidene)amino]-N-(pyrimidin-2-yl)benzenesulfonamide] | 16 (≈ 6.22 µg/mL) |

Same assay, conditions: Mycobacterium kansasii, 6509/96, 504 h; 21 d incubation; read-out: MIC M. kansasii 6509/96 21 d

| SMILES | MIC [µM] |
| --- | --- |
| O=S(=O)(Nc1ncccn1)c1ccc(N=Cc2cccc(Cl)c2O)cc1 [Compound 2l, 4-[(3-Chloro-2-hydroxybenzylidene)amino]-N-(pyrimidin-2-yl)benzenesulfonamide] | 32 (≈ 12.4 µg/mL) |

Test system: ESBL-positive Klebsiella pneumoniae J 14368/08
Assay: not given
Details: 24 h

| SMILES | MIC KP-E 24 h [µM] |
| --- | --- |
| O=S(=O)(Nc1ncccn1)c1ccc(N=Cc2cccc(Cl)c2O)cc1 [Compound 2l, 4-[(3-Chloro-2-hydroxybenzylidene)amino]-N-(pyrimidin-2-yl)benzenesulfonamide] | >500 |

Same assay, conditions: 48 h

| SMILES | MIC KP-E 48 h [µM] |
| --- | --- |
| O=S(=O)(Nc1ncccn1)c1ccc(N=Cc2cccc(Cl)c2O)cc1 [Compound 2l, 4-[(3-Chloro-2-hydroxybenzylidene)amino]-N-(pyrimidin-2-yl)benzenesulfonamide] | >500 |

Test system: Mycobacterium tuberculosis 331/88 (H37Rv)
Assay: In vitro antimycobacterial MIC, M. tuberculosis
Format: cell-based
Details: 336 h, 14 d incubation, read-out: MIC Mtb. 331/88 14 d

| SMILES | MIC [µM] |
| --- | --- |
| O=S(=O)(Nc1ncccn1)c1ccc(N=Cc2cccc(Cl)c2O)cc1 [Compound 2l, 4-[(3-Chloro-2-hydroxybenzylidene)amino]-N-(pyrimidin-2-yl)benzenesulfonamide] | 32 (≈ 12.4 µg/mL) |

Same assay, conditions: 504 h, 21 d incubation, read-out: MIC Mtb. 331/88 21 d

| SMILES | MIC [µM] |
| --- | --- |
| O=S(=O)(Nc1ncccn1)c1ccc(N=Cc2cccc(Cl)c2O)cc1 [Compound 2l, 4-[(3-Chloro-2-hydroxybenzylidene)amino]-N-(pyrimidin-2-yl)benzenesulfonamide] | 62.5 (≈ 24.3 µg/mL) |

Test system: Candida albicans ATCC 44859
Assay: Antifungal microdilution broth MIC, C. albicans
Format: cell-based
Details: ATCC44859, 24 h, read-out: MIC CA 24 h

| SMILES | MIC [µM] |
| --- | --- |
| O=S(=O)(Nc1ncccn1)c1ccc(N=Cc2cccc(Cl)c2O)cc1 [Compound 2l, 4-[(3-Chloro-2-hydroxybenzylidene)amino]-N-(pyrimidin-2-yl)benzenesulfonamide] | 62.5 (≈ 24.3 µg/mL) |

Same assay, conditions: ATCC44859, 48 h, read-out: MIC CA 48 h

| SMILES | MIC [µM] |
| --- | --- |
| O=S(=O)(Nc1ncccn1)c1ccc(N=Cc2cccc(Cl)c2O)cc1 [Compound 2l, 4-[(3-Chloro-2-hydroxybenzylidene)amino]-N-(pyrimidin-2-yl)benzenesulfonamide] | 62.5 (≈ 24.3 µg/mL) |

Test system: Aspergillus fumigatus 231
Assay: Antifungal microdilution broth MIC, A. fumigatus
Format: cell-based
Details: Aspergillus fumigatus, 231; 48 h incubation; read-out: MIC AF 48 h

| SMILES | MIC [µM] |
| --- | --- |
| O=S(=O)(Nc1ncccn1)c1ccc(N=Cc2cccc(Cl)c2O)cc1 [Compound 2l, 4-[(3-Chloro-2-hydroxybenzylidene)amino]-N-(pyrimidin-2-yl)benzenesulfonamide] | 250 (≈ 97.2 µg/mL) |

Test system: Staphylococcus epidermidis H 6966/08
Assay: Antibacterial microdilution broth MIC, S. epidermidis
Format: cell-based
Details: Staphylococcus epidermidis, H6966/08; 48 h incubation; read-out: MIC SE 48 h

| SMILES | MIC [µM] |
| --- | --- |
| O=S(=O)(Nc1ncccn1)c1ccc(N=Cc2cccc(Cl)c2O)cc1 [Compound 2l, 4-[(3-Chloro-2-hydroxybenzylidene)amino]-N-(pyrimidin-2-yl)benzenesulfonamide] | > 500 |

Test system: Pseudomonas aeruginosa CCM 1961
Assay: Antibacterial microdilution broth MIC, P. aeruginosa
Format: cell-based
Details: Pseudomonas aeruginosa, CCM1961; 48 h incubation; read-out: MIC PA 48 h

| SMILES | MIC [µM] |
| --- | --- |
| O=S(=O)(Nc1ncccn1)c1ccc(N=Cc2cccc(Cl)c2O)cc1 [Compound 2l, 4-[(3-Chloro-2-hydroxybenzylidene)amino]-N-(pyrimidin-2-yl)benzenesulfonamide] | > 500 |

Test system: Mycobacterium kansasii 235/80
Assay: In vitro antimycobacterial MIC, M. kansasii 235/80
Format: cell-based
Details: 235/80, 168 h, 7 d incubation, read-out: MIC M. kansasii 235/80 7 d

| SMILES | MIC [µM] |
| --- | --- |
| O=S(=O)(Nc1ncccn1)c1ccc(N=Cc2cccc(Cl)c2O)cc1 [Compound 2l, 4-[(3-Chloro-2-hydroxybenzylidene)amino]-N-(pyrimidin-2-yl)benzenesulfonamide] | 16 (≈ 6.22 µg/mL) |

Same assay, conditions: 235/80, 336 h, 14 d incubation, read-out: MIC M. kansasii 235/80 14 d

| SMILES | MIC [µM] |
| --- | --- |
| O=S(=O)(Nc1ncccn1)c1ccc(N=Cc2cccc(Cl)c2O)cc1 [Compound 2l, 4-[(3-Chloro-2-hydroxybenzylidene)amino]-N-(pyrimidin-2-yl)benzenesulfonamide] | 32 (≈ 12.4 µg/mL) |

Same assay, conditions: 235/80, 504 h, 21 d incubation, read-out: MIC M. kansasii 235/80 21 d

| SMILES | MIC [µM] |
| --- | --- |
| O=S(=O)(Nc1ncccn1)c1ccc(N=Cc2cccc(Cl)c2O)cc1 [Compound 2l, 4-[(3-Chloro-2-hydroxybenzylidene)amino]-N-(pyrimidin-2-yl)benzenesulfonamide] | 62.5 (≈ 24.3 µg/mL) |

Test system: Candida tropicalis 156
Assay: Antifungal microdilution broth MIC, C. tropicalis
Format: cell-based
Details: Candida tropicalis, 156, 24 h, read-out: MIC CT 24 h

| SMILES | MIC [µM] |
| --- | --- |
| O=S(=O)(Nc1ncccn1)c1ccc(N=Cc2cccc(Cl)c2O)cc1 [Compound 2l, 4-[(3-Chloro-2-hydroxybenzylidene)amino]-N-(pyrimidin-2-yl)benzenesulfonamide] | 125 (≈ 48.6 µg/mL) |

Same assay, conditions: Candida tropicalis, 156, 48 h, read-out: MIC CT 48 h

| SMILES | MIC [µM] |
| --- | --- |
| O=S(=O)(Nc1ncccn1)c1ccc(N=Cc2cccc(Cl)c2O)cc1 [Compound 2l, 4-[(3-Chloro-2-hydroxybenzylidene)amino]-N-(pyrimidin-2-yl)benzenesulfonamide] | 125 (≈ 48.6 µg/mL) |

Test system: Escherichia coli CCM 4517
Assay: Antibacterial microdilution broth MIC, E. coli
Format: cell-based
Details: Escherichia coli, CCM4517; 48 h incubation; read-out: MIC EC 48 h

| SMILES | MIC [µM] |
| --- | --- |
| O=S(=O)(Nc1ncccn1)c1ccc(N=Cc2cccc(Cl)c2O)cc1 [Compound 2l, 4-[(3-Chloro-2-hydroxybenzylidene)amino]-N-(pyrimidin-2-yl)benzenesulfonamide] | > 500 |

Test system: Enterococcus faecalis J 14365/08
Assay: Antibacterial microdilution broth MIC, E. faecalis
Format: cell-based
Details: Enterococcus faecalis, J14365/08; 48 h incubation; read-out: MIC EF 48 h

| SMILES | MIC [µM] |
| --- | --- |
| O=S(=O)(Nc1ncccn1)c1ccc(N=Cc2cccc(Cl)c2O)cc1 [Compound 2l, 4-[(3-Chloro-2-hydroxybenzylidene)amino]-N-(pyrimidin-2-yl)benzenesulfonamide] | > 500 |
